{"source": "paper PMC3197640", "about": "“Human Engineered Heart Tissue as a Versatile Tool in Basic Research and Preclinical Toxicology” (PLoS ONE, 2011)", "key": {"[1]": {"system": "human engineered heart tissue (hEHT)", "settings": "for Threshold concentration at which the compound significantly decreased relaxation velocity / Threshold concentration inducing irregular beating patterns (RR-scatter): human, 30 min", "description": "Calcium-concentration response curves were established in DMEM, 1% penicillin/streptomycin, 10 mM HEPES, and 100 µM acetylcysteine with calcium concentrations adjusted to the desired final concentration (0.2–3.0 mmol/L). Equilibration time was 20 minutes. Measurements were performed under spontaneous activity by automated video-optical recording and analysis (customized software, Consulting Team Machine Vision) as previously described. Contractile force F was calculated from the degree of post deflection δ (µm), silicone post length (L) and radius (R) and elastic modulus (E) by the formula F = 3πER^4δ/4L^3 [29]. Contraction- and relaxation velocities were calculated as the average maximal steepness of twitch contraction or relaxation, respectively. Each value represents the mean of all measurable contraction twitches in the recording period of 60 seconds per hEHT.\nEHTs were equilibrated in DMEM, 1% penicillin/streptomycin, 10 mM HEPES, 100 µM acetylcysteine for one hour. […] Isoprenaline and carbachol were used at 100 nM and 10 µM, respectively.\nIntervals between two contractions were determined for all recordings. […] Interval scatter was therefore defined as the length between 10th and 90th percentile (interdecile range, IDR). Statistical difference between groups of biological replicas were determined with Mann-Whitney U Test (*P<0.05)."}, "[2]": {"system": "hERG channel", "settings": "cited from earlier work"}, "[3]": {"system": "hESC-derived cardiomyocytes (EBs and EHTs)", "test": "Action potential measurements with sharp microelectrodes (zero current clamp)", "assay_type": "cell-based, human"}, "[4]": {"settings": "read-out: Published IC50 (hERG), hERG channel assays"}}, "note": "Where two headings read alike, the source gives them in different places."}
{"compound": "Cc1cccc(CCN2CCC(C(=O)c3ccc(NS(C)(=O)=O)cc3)CC2)n1", "note": "[E-4031]", "values": [{"measurement": "Effect on APD", "setting": "[3]; 300 nM, P<0.05, n = 4", "value": "significant prolongation"}]}
{"compound": "CCN(CC)CCNC(=O)c1ccc(N)cc1", "note": "[Procainamide]", "values": [{"measurement": "Threshold concentration at which the compound significantly decreased relaxation velocity", "setting": "[1]", "value": 100000, "unit": "nM"}, {"measurement": "Threshold concentration inducing irregular beating patterns (RR-scatter)", "setting": "[1]", "value": 100000, "unit": "nM"}, {"measurement": "IC50", "setting": "[2]; [4]", "value": 139000, "unit": "nM"}]}
{"compound": "[Ca+2]", "note": "[calcium]", "values": [{"measurement": "Decrease in force", "setting": "[1]; hEHT, lowering calcium from 1.8 mM (baseline) to 0.2 mM", "value": 90, "unit": "%"}]}
{"compound": "C[N+](C)(C)CCOC(N)=O", "note": "[carbachol]", "values": [{"measurement": "Effect on isoprenaline-induced changes in frequency and force", "setting": "[1]; hEHT, 10 µM, after isoprenaline 100 nM, 0.6 mM calcium", "value": "reversed"}]}
{"compound": "CC(C)NCC(O)c1ccc(O)c(O)c1", "note": "(centres unmarked) [isoprenaline]", "values": [{"measurement": "Effect on beating frequency", "setting": "[1]; hEHT, 100 nM, 0.6 mM calcium", "value": "positive chronotropic effect"}, {"measurement": "Effect on force", "setting": "[1]; hEHT, 100 nM, 0.6 mM calcium", "value": "trend towards an increase in force (not significant)"}]}
{"compound": "COC(=O)C1=C(C)NC(C)=C(C(=O)OCC(C)C)C1c1ccccc1[N+](=O)[O-]", "note": "(centres unmarked) [nisoldipine]", "values": [{"measurement": "Effect on electrical activity and contractions", "setting": "[3]; 1 µM, all spontaneously beating hESC cultures", "value": "completely interrupted"}]}
{"compound": "NC1=N[C@H](O)[C@H]2[C@H]3O[C@]4(O)O[C@@H]([C@@H](O)[C@@]2(N1)[C@@H]4O)[C@]3(O)CO", "note": "[tetrodotoxin]", "values": [{"measurement": "Effect on AP upstroke velocity", "setting": "[3]", "value": "significant decrease"}, {"measurement": "Effect on APD80 and diastolic interval", "setting": "[3]", "value": "significant prolongation"}]}
